Measurements as given in PubChem BioAssay AID1919005 (Molecular Pharmacology Branch, DTP, NCI, 2023).

Test system: 855422-203-R-J1-PDC complex spheroid growth
Assay: Anticancer human tumor 855422-203-R-J1-PDC patient-derived bladder carcinoma cell line growth inhibition [AhR]
Conditions: for IC50: curve of first compound; for viability, T/C: stronger effect = lower value
From the text: Multicellular complex tumor spheroid response to aryl hydrocarbon receptor antagonists in combination with a variety of drugs and investigational agents in selected tumor cell lines
The current study was undertaken to assess response to aryl hydrocarbon receptor antagonists in combination with standard-of-care drugs and investigational agents in solid tumor complex spheroid models. Complex spheroids include a stromal component modeled by human endothelial cells (HUVEC) and fibroblasts modeled by human mesenchymal stem cells (MSCs). The concentration ranges selected for each drug and investigational agent were based upon clinically achievable concentrations if the clinical Cmax of the agent was known.
Compounds. The drugs and investigational agents: BAY 2416964 (NSC825713), GNF351 (NSC835774), CH-223191 (NSC835775), CPI-455 (NSC825282), aza-TdCyd (NSC777586), decitabine (NSC127716), belinostat (NSC758774), entinostat (NSC756642), pevonedistat (NSC761192), tazemetostat (NSC777109), talazoparib (NSC765396), olaparib (NSC753686), selinexor (NSC780203), nedisertib (M3814, NSC802822), bortezomib (NSC756655), venetoclax (NSC766270), doxorubicin (NSC123127), elimusertib (BAY189344, NSC800525), ceralasertib (AZD6738, NSC777638), TAK-243 (NSC785004), alisertib (NSC759677), etoposide (NSC141540), topotecan (NSC609699), eribulin (NSC707389), gemcitabine (NSC613327), carboplatin (NSC241240), cisplatin (NSC119875), and SN-38 (NSC673596) were obtained from the National Cancer Institute (NCI) Developmental Therapeutics Program Chemical Repository (32). The FDA-approved anticancer drug set is available from the Developmental Therapeutics Program at https://dtp.cancer.gov/organization/dscb/obtaining/available plates.htm. […] The stock solutions were prepared in dimethyl sulfoxide (DMSO, Sigma-Aldrich, St. Louis, MO, cat. D2650), except for the platinum compounds which were prepared in saline (Quality Biological, Gaithersburg, MD, cat. 114-055-101), at 800-fold the tested concentration and stored at -70 degrees C prior to their use. All drugs and investigational agents were tested over a range starting from a high concentration at or near the clinical Cmax and decreasing in half-log increments. If the clinical Cmax for an agent had not been determined, the highest concentration tested was 10 microM (Table 1).
Cell Culture. All cells were maintained in an incubator at 37 degrees C and 5% CO2 with 95% humidity. The PDC lines were cultured according to standard operating procedures established by the NCI PDMR (https://pdmr.cancer.gov). Briefly, all PDCs were thawed and cultured in Matrigel-coated flasks prepared with a working solution of 1X Ham's F-12 nutrient mix, without supplementation (Invitrogen, Waltham, MA, cat. 11765054), 100 U/mL penicillin-streptomycin (Invitrogen, cat. 15140122), and 2.5% Matrigel (Corning Inc., Corning, NY, cat. 354248) for the first three passages. All PDCs were cultured in complete DMEM/F-12 media containing advanced DMEM/F-12 (Invitrogen, cat. 12634028), 4.9% defined fetal bovine serum, heat inactivated (HyClone Laboratories Inc., Logan, UT, cat. SH30070.03HI), 389 ng/mL hydrocortisone (Sigma-Aldrich, cat. H4001), 9.7 ng/mL human EGF recombinant protein (Invitrogen, cat. PHG0313), 23.4 microg/mL adenine (Sigma-Aldrich, cat. A2786), 97.3 U/mL penicillin-streptomycin (Invitrogen, cat. 15140122), 1.9 mM L-glutamine (Invitrogen, cat. 25030081), and 9.7 microM Y-27632 dihydrochloride (Tocris Bioscience, Bristol, United Kingdom, cat. 1254). The PDCs were cultured in complete DMEM/F12 media without 10 microM Y-27632 dihydrochloride for at least two passages prior to the screen. The established cell lines NCI-H1341 and […] were cultured in DMEM/F-12, HEPES (Invitrogen, cat. 11330032), 5% defined fetal bovine serum (HyClone Laboratories Inc., cat. SH30070.03), ITS premix universal culture supplement [insulin (5 microg/mL), transferrin (5 microg/mL), and selenious acid (5 ng/mL)] […]

[1] = second compound 0.1 µM, first compound 0.0316 µM
[2] = second compound 0.1 µM, first compound 0.1 µM
[3] = second compound 0.1 µM, first compound 0.316 µM
[4] = second compound 0.1 µM, first compound 1 µM
[5] = second compound 0.316 µM, first compound 0.0316 µM
[6] = second compound 0.316 µM, first compound 0.1 µM
[7] = second compound 0.316 µM, first compound 0.316 µM
[8] = second compound 0.316 µM, first compound 1 µM
[9] = second compound 1 µM, first compound 0.0316 µM
[10] = second compound 1 µM, first compound 0.1 µM
[11] = second compound 1 µM, first compound 0.316 µM
[12] = second compound 1 µM, first compound 1 µM
[13] = second compound 3.16 µM, first compound 0.0316 µM
[14] = second compound 3.16 µM, first compound 0.1 µM
[15] = second compound 3.16 µM, first compound 0.316 µM
[16] = second compound 3.16 µM, first compound 1 µM
[17] = second compound 10 µM, first compound 0.0316 µM
[18] = second compound 10 µM, first compound 0.1 µM
[19] = second compound 10 µM, first compound 0.316 µM
[20] = second compound 10 µM, first compound 1 µM
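Note: spheroids exposed to agents for seven days before readout.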
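Throughout, for viability, T/C: percent of DMSO vehicle control luminescence viability.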

IC50 (second compound 0.1 µM) [nM]	IC50 (second compound 0.316 µM) [nM]	IC50 (second compound 1 µM) [nM]	IC50 (second compound 3.16 µM) [nM]	IC50 (second compound 10 µM) [nM]	Structure (SMILES)	viability, T/C [1] [%]	viability, T/C [2] [%]	viability, T/C [3] [%]	viability, T/C [4] [%]	viability, T/C [5] [%]	viability, T/C [6] [%]	viability, T/C [7] [%]	viability, T/C [8] [%]	viability, T/C [9] [%]	viability, T/C [10] [%]	viability, T/C [11] [%]	viability, T/C [12] [%]	viability, T/C [13] [%]	viability, T/C [14] [%]	viability, T/C [15] [%]	also measured
< 31.6	< 31.6	< 31.6	< 31.6	< 31.6	COc1cccc2c1C(=O)c1c(O)c3c(c(O)c1C2=O)CC(O)(C(=O)CO)CC3OC1CC(N)C(O)C(C)O1 (stereo not given) + CC(CO)NC(=O)c1cc(-c2ccc(Cl)cc2)nn(-c2cnn(C)c2)c1=O	34.3	21.9	4.3	1.57	31.6	21.3	3.51	1.36	37.7	21.3	3.4	1.68	32	17.5	2.92	viability, T/C (second compound 0.1 µM, first compound 3.16 µM): 1.7%; viability, T/C (second compound 0.1 µM, first compound 10 µM): 2.88%; viability, T/C (second compound 0.316 µM, first compound 3.16 µM): 1.02%; viability, T/C (second compound 0.316 µM, first compound 10 µM): 2.82%; viability, T/C (second compound 1 µM, first compound 3.16 µM): 0.81%; viability, T/C (second compound 1 µM, first compound 10 µM): 3.37%; viability, T/C [16]: 1.21%; viability, T/C (second compound 3.16 µM, first compound 3.16 µM): 0.84%; viability, T/C (second compound 3.16 µM, first compound 10 µM): 4.27%; viability, T/C [17]: 32.9%; viability, T/C [18]: 17.8%; viability, T/C [19]: 2.64%; viability, T/C [20]: 0.53%; viability, T/C (second compound 10 µM, first compound 3.16 µM): 0.94%; viability, T/C (second compound 10 µM, first compound 10 µM): 5.77%
> 1000	> 1000	> 1000	> 1000	> 1000	Nc1ncn(C2CC(O)C(CO)O2)c(=O)n1 (stereo not given) + CC(CO)NC(=O)c1cc(-c2ccc(Cl)cc2)nn(-c2cnn(C)c2)c1=O	85	85.3	73	76.3	93.3	83.6	80.7	78.2	95.7	87.4	82.5	80.2	90.2	79.8	79.5	viability, T/C (second compound 0.1 µM, first compound 0.00316 µM): 92.6%; viability, T/C (second compound 0.1 µM, first compound 0.01 µM): 92.2%; viability, T/C (second compound 0.316 µM, first compound 0.00316 µM): 94.6%; viability, T/C (second compound 0.316 µM, first compound 0.01 µM): 90.3%; viability, T/C (second compound 1 µM, first compound 0.00316 µM): 103%; viability, T/C (second compound 1 µM, first compound 0.01 µM): 96.6%; viability, T/C (second compound 3.16 µM, first compound 0.00316 µM): 95.3%; viability, T/C (second compound 3.16 µM, first compound 0.01 µM): 93.9%; viability, T/C [16]: 80.9%; viability, T/C (second compound 10 µM, first compound 0.00316 µM): 96.5%; viability, T/C (second compound 10 µM, first compound 0.01 µM): 88.7%; viability, T/C [17]: 88.3%; viability, T/C [18]: 91.5%; viability, T/C [19]: 84.8%; viability, T/C [20]: 76.3%
